In this assay the target is HCV NS3-4A serine protease (full-length NS3-4A protein) (Hepatitis C virus genotype 1a (isolate 1) (HCV), UniProt P26664). Briefly: HCV NS3-4A protease assay. Conditions: strain HCV-1, fluorogenic peptide substrate, read-out: Protease assay Ex. 12 IC50. The assay is classed as biochemical, HCV genotype 1a. As to the method: The inhibitory activity of certain compounds of Table A against HCV NS3-4A serine protease is determined in a homogenous assay using the full-length NS3-4A protein (genotype 1a, strain HCV-1) and a commercially available internally-quenched fluorogenic peptide substrate as described by Taliani, M., et al. 1996 Anal. Biochem. 240:60-67, which is incorporated by reference in its entirety.
Sequence of HCV NS3-4A serine protease (full-length NS3-4A protein) (P26664 1027-1657): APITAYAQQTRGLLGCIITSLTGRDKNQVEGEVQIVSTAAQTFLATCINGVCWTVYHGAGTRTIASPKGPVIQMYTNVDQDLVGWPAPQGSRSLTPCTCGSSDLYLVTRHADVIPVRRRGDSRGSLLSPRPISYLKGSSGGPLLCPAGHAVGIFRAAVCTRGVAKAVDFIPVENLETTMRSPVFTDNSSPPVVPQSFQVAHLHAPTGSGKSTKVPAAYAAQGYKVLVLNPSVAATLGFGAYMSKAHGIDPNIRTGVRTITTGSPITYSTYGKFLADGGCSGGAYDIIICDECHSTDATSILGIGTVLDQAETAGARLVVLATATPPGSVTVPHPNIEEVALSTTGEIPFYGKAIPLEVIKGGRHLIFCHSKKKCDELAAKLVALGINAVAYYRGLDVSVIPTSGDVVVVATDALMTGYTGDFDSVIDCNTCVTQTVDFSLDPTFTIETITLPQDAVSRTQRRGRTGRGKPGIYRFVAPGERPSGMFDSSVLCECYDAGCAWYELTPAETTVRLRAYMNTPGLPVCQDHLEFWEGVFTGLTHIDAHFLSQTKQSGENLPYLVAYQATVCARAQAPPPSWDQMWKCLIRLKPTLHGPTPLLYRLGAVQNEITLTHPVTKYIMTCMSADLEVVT
Sequence of HCV NS3-4A serine protease (full-length NS3-4A protein) (P26664 1658-1711 partner): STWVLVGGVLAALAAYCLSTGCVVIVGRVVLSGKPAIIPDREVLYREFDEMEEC
For orientation: IC50 means the concentration needed to halve the response being measured. Turning to `C=C[C@@H]1C[C@]1(NC(=O)[C@@H]1C[C@@]2(CN1C(=O)[C@@H](NC(=O)CC1(CC(N)=O)CCCCC1)C(C)(C)C)C(C)(C)C21CCC1)C(=O)NS(=O)(=O)N1CCCC1` [Compound 60, (5R,8S)-7-[(2S)-2-({[1-(2-amino-2-oxoethyl)cyclohexyl]acetyl}amino)-3,3-dimethylbutanoyl]-10,10-dimethyl-N-{(1R,2S)-1-[(pyrrolidin-1-ylsulfonyl)carbamoyl]-2-vinylcyclopropyl}-7-azadispiro[3.0.4.1]decane-8-carboxamide], the IC50 came to 1250 nM.
`C=C[C@@H]1C[C@]1(NC(=O)[C@@H]1C[C@@]2(CN1C(=O)[C@@H](NC(=O)CC1(CC#N)CCCCC1)C(C)(C)C)C(C)(C)C21CCC1)C(=O)NS(=O)(=O)N1CCCC1` [Compound 61, (5R,8S)-7-[(2S)-2-({[1-(cyanomethyl)cyclohexyl]acetyl}amino)-3,3-dimethylbutanoyl]-10,10-dimethyl-N-{(1R,2S)-1-[(pyrrolidin-1-ylsulfonyl)carbamoyl]-2-vinylcyclopropyl}-7-azadispiro[3.0.4.1]decane-8-carboxamide]: the IC50 was 750 nM.
For `C=C[C@@H]1C[C@]1(NC(=O)[C@@H]1C[C@@]2(CN1C(=O)[C@@H](NC(=O)[C@@H](NC(=O)[C@@H]1CCCN1C(C)C)C1CCCCC1)C(C)(C)C)C(C)(C)C21CCC1)C(=O)NS(=O)(=O)N(CC)CC` [Compound 62, (5R,8S)-7-[(2S)-2-{[(2S)-2-cyclohexyl-2-({[(2S)-1-isopropylpyrrolidin-2-yl]carbonyl}amino)acetyl]amino}-3,3-dimethylbutanoyl]-N-[(1R,2S)-1-{[(diethylamino)sulfonyl]carbamoyl}-2-vinylcyclopropyl]-10,10-dimethyl-7-azadispiro[3.0.4.1]decane-8-carboxamide] the value was 1 nM; for `C=C[C@@H]1C[C@]1(NC(=O)[C@@H]1C[C@@]2(CN1C(=O)[C@@H](NC(=O)[C@@H](NC(=O)[C@@H]1CCCN1CC)C1CCCCC1)C(C)(C)C)C(C)(C)C21CCC1)C(=O)NS(=O)(=O)N(CC)CC` [Compound 63, (5R,8S)-7-[(2S)-2-{[(2S)-2-cyclohexyl-2-({[(2S)-1-ethylpyrrolidin-2-yl]carbonyl}amino)acetyl]amino}-3,3-dimethylbutanoyl]-N-[(1R,2S)-1-{[(diethylamino)sulfonyl]carbamoyl}-2-vinylcyclopropyl]-10,10-dimethyl-7-azadispiro[3.0.4.1]decane-8-carboxamide], 1.2 nM; for `C=C[C@@H]1C[C@]1(NC(=O)[C@@H]1C[C@@]2(CN1C(=O)[C@@H](NC(=O)[C@@H](NC(=O)[C@@H]1CCCCN1C1CCCC1)C1CCCCC1)C(C)(C)C)C(C)(C)C21CCC1)C(=O)NS(=O)(=O)N(CC)CC` [Compound 64, (5R,8S)-7-[(2S)-2-{[(2S)-2-cyclohexyl-2-({[(2S)-1-cyclopentylpiperidin-2-yl]carbonyl}amino)acetyl]amino}-3,3-dimethylbutanoyl]-N-[(1R,2S)-1-{[(diethylamino)sulfonyl]carbamoyl}-2-vinylcyclopropyl]-10,10-dimethyl-7-azadispiro[3.0.4.1]decane-8-carboxamide], 2 nM.
Next, `C=C[C@@H]1C[C@]1(NC(=O)[C@@H]1C[C@@]2(CN1C(=O)[C@@H](NC(=O)[C@@H](NC(=O)[C@H]1CCCCN1C(C)C)C1CCCCC1)C(C)(C)C)C(C)(C)C21CCC1)C(=O)NS(=O)(=O)N(CC)CC` [Compound 65, (5R,8S)-7-[(2S)-2-{[(2S)-2-cyclohexyl-2-({[(2R)-1-isopropylpiperidin-2-yl]carbonyl}amino)acetyl]amino}-3,3-dimethylbutanoyl]-N-[(1R,2S)-1-{[(diethylamino)sulfonyl]carbamoyl}-2-vinylcyclopropyl]-10,10-dimethyl-7-azadispiro[3.0.4.1]decane-8-carboxamide]: 4.5 nM.
Next, `C=C[C@@H]1C[C@]1(NC(=O)[C@@H]1C[C@@]2(CN1C(=O)[C@@H](NC(=O)[C@@H](NC(=O)[C@@H]1CCCCN1C(C)C)C1CCCCC1)C1CCCC1)C(C)(C)C21CCC1)C(=O)NS(=O)(=O)N1CCCC1` [Compound 66, (5R,8S)-7-[(2S)-2-{[(2S)-2-cyclohexyl-2-({[(2S)-1-isopropylpiperidin-2-yl]carbonyl}amino)acetyl]amino}-2-cyclopentylacetyl]-10,10-dimethyl-N-{(1R,2S)-1-[(pyrrolidin-1-ylsulfonyl)carbamoyl]-2-vinylcyclopropyl}-7-azadispiro[3.0.4.1]decane-8-carboxamide]: 5.5 nM; `C=C[C@@H]1C[C@]1(NC(=O)C1C[C@@]2(CN1C(=O)[C@@H](NC(=O)[C@@H](NC(=O)[C@@H]1CCCCN1C(C)C)C(C)(C)C)C1CCOCC1)C(C)(C)C21CCC1)C(=O)NS(=O)(=O)N1CCCC1` (stereo partly drawn) [Compound 67, (5R)-7-[(2S)-2-[(N-{[(2S)-1-isopropylpiperidin-2-yl]carbonyl}-3-methyl-L-valyl)amino]-2-(tetrahydro-2H-pyran-4-yl)acetyl]-10,10-dimethyl-N-{(1R,2S)-1-[(pyrrolidin-1-ylsulfonyl)carbamoyl]-2-vinylcyclopropyl}-7-azadispiro[3.0.4.1]decane-8-carboxamide]: 20 nM; `C=C[C@@H]1C[C@]1(NC(=O)C1C[C@@]2(CN1C(=O)[C@@H](NC(=O)c1cccc(C(=O)NCCC)c1)C(C)(C)C)C(C)(C)C21CCC1)C(=O)NS(=O)(=O)N1CCCC1` (stereo partly drawn) [Compound 68, N-[(1S)-1-{[(5R)-10,10-dimethyl-8-({(1R,2S)-1-[(pyrrolidin-1-ylsulfonyl)carbamoyl]-2-vinylcyclopropyl}carbamoyl)-7-azadispiro[3.0.4.1]dec-7-yl]carbonyl}-2,2-dimethylpropyl]-N′-propylisophthalamide]: 950 nM.
As for `C=C[C@@H]1C[C@]1(NC(=O)[C@@H]1C[C@@]2(CN1C(=O)[C@@H](NC(=O)[C@@H](NC(=O)c1cccc(N(C)C)n1)C1CCCCC1)C(C)(C)C)C(C)(C)C21CCC1)C(=O)NS(=O)(=O)N1CCCC1` [Compound 69, (5R,8S)-7-[(2S)-2-{[(2S)-2-cyclohexyl-2-({[6-(dimethylamino)pyridin-2-yl]carbonyl}amino)acetyl]amino}-3,3-dimethylbutanoyl]-10,10-dimethyl-N-{(1R,2S)-1-[(pyrrolidin-1-ylsulfonyl)carbamoyl]-2-vinylcyclopropyl}-7-azadispiro[3.0.4.1]decane-8-carboxamide], the IC50 was found to be 50 nM.
For the compound `C=C[C@@H]1C[C@]1(NC(=O)[C@@H]1C[C@@]2(CN1C(=O)[C@@H](NC(=O)[C@@H](NC(=O)c1cccnc1N(C)C)C1CCCCC1)C(C)(C)C)C(C)(C)C21CCC1)C(=O)NS(=O)(=O)N1CCCC1` [Compound 70, (5R,8S)-7-[(2S)-2-{[(2S)-2-cyclohexyl-2-({[2-(dimethylamino)pyridin-3-yl]carbonyl}amino)acetyl]amino}-3,3-dimethylbutanoyl]-10,10-dimethyl-N-{(1R,2S)-1-[(pyrrolidin-1-ylsulfonyl)carbamoyl]-2-vinylcyclopropyl}-7-azadispiro[3.0.4.1]decane-8-carboxamide], the IC50 came to 35 nM.
Next, `C=C[C@@H]1C[C@]1(NC(=O)[C@@H]1C[C@@]2(CN1C(=O)[C@@H](NC(=O)[C@@H](NC(=O)[C@@H]1CCCN1CC(F)(F)F)C1CCCCC1)C1CCOCC1)C(C)(C)C21CCC1)C(=O)NS(=O)(=O)N1CCCC1` [Compound 71, (5R,8S)-7-[(2S)-2-{[(2S)-2-cyclohexyl-2-({[(2S)-1-(2,2,2-trifluoroethyl)pyrrolidin-2-yl]carbonyl}amino)acetyl]amino}-2-(tetrahydro-2H-pyran-4-yl)acetyl]-10,10-dimethyl-N-{(1R,2S)-1-[(pyrrolidin-1-ylsulfonyl)carbamoyl]-2-vinylcyclopropyl}-7-azadispiro[3.0.4.1]decane-8-carboxamide]: 40 nM.
For `C=C[C@@H]1C[C@]1(NC(=O)[C@@H]1C[C@@]2(CN1C(=O)[C@@H](NC(=O)[C@@H](NC(=O)[C@@H]1CCCN1CC(F)F)C1CCCCC1)C1CCOCC1)C(C)(C)C21CCC1)C(=O)NS(=O)(=O)N1CCCC1` [Compound 72, (5R,8S)-7-[(2S)-2-{[(2S)-2-cyclohexyl-2-({[(2S)-1-(2,2-difluoroethyl)pyrrolidin-2-yl]carbonyl}amino)acetyl]amino}-2-(tetrahydro-2H-pyran-4-yl)acetyl]-10,10-dimethyl-N-{(1R,2S)-1-[(pyrrolidin-1-ylsulfonyl)carbamoyl]-2-vinylcyclopropyl}-7-azadispiro[3.0.4.1]decane-8-carboxamide] the value was 70 nM.
Turning to `C=C[C@@H]1C[C@]1(NC(=O)[C@@H]1C[C@@]2(CN1C(=O)[C@@H](NC(=O)[C@@H](NC(=O)[C@@H]1CCCN1CCF)C1CCCCC1)C1CCOCC1)C(C)(C)C21CCC1)C(=O)NS(=O)(=O)N1CCCC1` [Compound 73, (5R,8S)-7-[(2S)-2-{[(2S)-2-cyclohexyl-2-({[(2S)-1-(2-fluoroethyl)pyrrolidin-2-yl]carbonyl}amino)acetyl]amino}-2-(tetrahydro-2H-pyran-4-yl)acetyl]-10,10-dimethyl-N-{(1R,2S)-1-[(pyrrolidin-1-ylsulfonyl)carbamoyl]-2-vinylcyclopropyl}-7-azadispiro[3.0.4.1]decane-8-carboxamide], the IC50 was found to be 15 nM.
For `C=C[C@@H]1C[C@]1(NC(=O)[C@@H]1C[C@@]2(CN1C(=O)[C@@H](NC(=O)[C@@H](NC(=O)[C@@H]1CCCCN1CC(F)F)C1CCCCC1)C1CCOCC1)C(C)(C)C21CCC1)C(=O)NS(=O)(=O)N1CCCC1` [Compound 74, (5R,8S)-7-[(2S)-2-{[(2S)-2-cyclohexyl-2-({[(2S)-1-(2,2-difluoroethyl)piperidin-2-yl]carbonyl}amino)acetyl]amino}-2-(tetrahydro-2H-pyran-4-yl)acetyl]-10,10-dimethyl-N-{(1R,2S)-1-[(pyrrolidin-1-ylsulfonyl)carbamoyl]-2-vinylcyclopropyl}-7-azadispiro[3.0.4.1]decane-8-carboxamide] the value was 65 nM.

Source of the values: patent US8613914B2, “Peptidomimetic sulfamide compounds and antiviral uses thereof” (Novartis AG, priority 2009, dated 2013).
